Source: patent publication US20150080337A1, “N-CYCLOALKYL-N-[(TRISUBSTITUTEDSILYLPHENYL)METHYLENE]-(THIO)CARBOXAMIDE DERIVATIVES” (BAYER CROPSCIENCE, priority 2012, published 2015)
One block for each compound: values may come before it.

Tests used:
Uromyces appendiculatus = test: In vivo preventive test on Uromyces appendiculatus (bean rust); details: 500 ppm of active ingredient; bean plants sprayed 24 hours before contamination; grading 11 days after contamination vs control plants
Experimental: (§1) The active ingredients tested are prepared by homogenization in a mixture of acetone/tween/DMSO, and then diluted with water to obtain the desired active material concentration.
Bean plants (“Saxa” variety), sown in starter cups on a 50/50 peat soil pozzolana substrate and grown at 24° C., are treated at the 2 leaf stage (9 cm height) by spraying with the active ingredient prepared as described above. Plants, used as controls, are treated with the mixture of acetone/tween/DMSO/water not containing the active material.
(§2) After 24 hours, the plants are contaminated by spraying the leaves with an aqueous suspension of Uromyces appendiculatus spores (150 000 spores per mL). The spores are collected from infected plants and are suspended in water containing 2.5 mL/L of Tween 80 at 10%. The contaminated bean plants are incubated for 24 hours at 20° C. and at 100% relative humidity, and then for 10 days at 20° C. and at 70-80% relative humidity.
Grading (% of efficacy) is carried out 11 days after the contamination, in comparison with the control plants.
Under these conditions, good (at least 70%) to total protection is observed at a dose of 500 ppm of active ingredient with the following compounds from table G: […]

[1] = log P by HPLC on reversed-phase column (C 18), EEC Directive 79/831 Annex V.A8; type: physicochemical; details: HPLC C 18, 40° C., 0.1% aqueous formic acid and acetonitrile, gradient 10% to 90% acetonitrile
Experimental: In table 1, the log P values were determined in accordance with EEC Directive 79/831 Annex V.A8 by HPLC (High Performance Liquid Chromatography) on a reversed-phase column (C 18), using the method described below:
Temperature: 40° C.; Mobile phases: 0.1% aqueous formic acid and acetonitrile; linear gradient from 10% acetonitrile to 90% acetonitrile.
Calibration was carried out using unbranched alkan-2-ones (comprising 3 to 16 carbon atoms) with known log P values (determination of the log P values by the retention times using linear interpolation between two successive alkanones). lambda-max-values were determined using UV-spectra from 200 nm to 400 nm and the peak values of the chromatographic signals.
In table 2, M+H (Apcl+) and log P are defined as for table 1.

Septoria tritici = test: In vivo preventive test on Septoria tritici (wheat); details: 500 ppm of active ingredient; wheat plants sprayed 24 hours before contamination; grading 24 days after contamination vs control plants
Experimental: as §1
(§3) Wheat plants (“Scipion” variety), sown in starter cups on a 50/50 peat soil pozzolana substrate and grown at 22° C., are treated at the 1 leaf stage (10 cm height) by spraying with the active ingredient prepared as described above. Plants, used as controls, are treated with the mixture of acetone/tween/DMSO/water not containing the active material.
After 24 hours, the plants are contaminated by spraying the leaves with an aqueous suspension of cryopreserved Septoria tritici spores (500 000 spores per mL). The contaminated wheat plants are incubated for 72 hours at 18° C. and at 100% relative humidity, and then for 21 days at 90% relative humidity.
Grading (% of efficacy) is carried out 24 days after the contamination, in comparison with the control plants.
Under these conditions, good (at least 70%) to total protection is observed at a dose of 500 ppm of active ingredient with the following compounds from table F: […]

Sphaerotheca fuliginea = test: In vivo test on Sphaerotheca fuliginea (cucurbits powdery mildew); details: 500 ppm of active ingredient; gherkin plants sprayed 24 hours before contamination; grading 12 days after contamination vs control plants
Experimental: The active ingredients tested are prepared by homogenization in a mixture of acetone/tween/DMSO and then diluted with water to obtain the desired active material concentration.
Gherkin plants (“Vert petit de Paris” variety), sown in starter cups on a 50/50 peat soil-pozzolana substrate and grown at 24° C., are treated at the Z11 cotyledon stage by spraying with the active ingredient prepared as described above. Plants, used as controls, are treated with the mixture of acetone/tween/DMSO/water not containing the active material.
After 24 hours, the plants are contaminated by spraying the cotyledons with an aqueous suspension of Sphaerotheca fuliginea spores (100 000 spores per mL). The spores are collected from infected plants. The contaminated gherkin plants are incubated at about 20° C. and at 70-80% relative humidity.
(§4) Grading (% of efficacy) is carried out 12 days after the contamination, in comparison with the control plants.
Under these conditions, good (at least 70%) to total protection is observed at a dose of 500 ppm of active ingredient with the following compounds from table A: […]

Puccinia recondita = test: In vivo test on Puccinia recondita (brown rust); details: 500 ppm of active ingredient; wheat plants sprayed 24 hours before contamination; grading 12 days after contamination vs control plants
Experimental: as §1, §3
as §2, with “of Puccinia recondita” for “of Uromyces appendiculatus”, “spores (100” for “spores (150”, “from an” for “from”, “infected plant” for “infected plants”, “contaminated wheat” for “contaminated bean”
as §4
Under these conditions, good (at least 70%) to excellent (at least 90%) protection is observed at a dose of 500 ppm of active ingredient with the following compounds from table C: […]

[2] = Table 1, compounds of formula (I)
[3] = Table 2, compounds of formula (II)

Structure (SMILES): Cn1cc(C(=O)N(Cc2ccccc2[Si](C)(C)c2ccc(-c3ccccc3)cc2)C2CC2)c(C(F)F)c1 [I.18]
logP [1, 2]: 5.68

Structure (SMILES): Cn1cc(C(=O)N(Cc2ccccc2[Si](C)(C)c2ccc(-c3ccccc3)cc2)C2CC2)c(C(F)F)n1 [I.14]
logP [1, 2]: 5.36

Structure (SMILES): CC1CC1NCc1ccccc1[Si](C)(C)c1ccccc1 (stereo not shown) [II.7]
logP [1, 3]: 2.70

Structure (SMILES): C[Si](C)(c1ccccc1)c1ccccc1CNC1CC1 [II.1, N-{2-[dimethyl(phenyl)silyl]benzyl}cyclopropanamine]
chromatographic logP [1, 3]: 1.95

Structure (SMILES): C[Si](C)(c1ccc(-c2ccccc2)cc1)c1ccccc1CN(C(=O)c1ccsc1I)C1CC1 [I.16]
logP [1, 2]: 6.39

Structure (SMILES): C[Si](C)(c1ccc(Cl)cc1)c1ccccc1CNC1CC1 [II.2, N-{2-[(4-chlorophenyl)(dimethyl)silyl]benzyl}cyclopropanamine]
chromatographic logP [1, 3]: 2.07

Structure (SMILES): Cn1nc(C(F)F)c(C(=O)N(Cc2ccccc2[Si](C)(C)c2ccc(Cl)cc2)C2CC2)c1F [I.6]
Efficacy (Uromyces appendiculatus): 100% | logP [1, 2]: 5.19 | Efficacy (Puccinia recondita): 94% | Efficacy (Sphaerotheca fuliginea): 100%

Structure (SMILES): Cn1cc(C(=O)N(Cc2ccccc2[Si](C)(C)c2ccccc2)C2CC2)c(C(F)F)n1 [I.3]
Efficacy (Uromyces appendiculatus): 93% | logP [1, 2]: 4.41 | Efficacy (Puccinia recondita): 83% | Efficacy (Septoria tritici): 80% | Efficacy (Sphaerotheca fuliginea): 93%

Structure (SMILES): Cn1cc(C(=O)N(Cc2ccccc2[Si](C)(C)c2ccc(Cl)cc2)C2CC2)c(C(F)F)c1 [I.10]
logP [1, 2]: 5.19

Structure (SMILES): C[Si](C)(c1ccc(-c2ccccc2)cc1)c1ccccc1CNC1CC1 [II.3, N-{2-[biphenyl-4-yl(dimethyl)silyl]benzyl}cyclopropanamine]
chromatographic logP [1, 3]: 2.39

Structure (SMILES): Cc1cc(C(=O)N(Cc2ccccc2[Si](C)(C)c2ccc(-c3ccccc3)cc2)C2CC2)c(C)o1 [I.15]
logP [1, 2]: 6.39

Structure (SMILES): COc1ccc([Si](C)(C)c2ccccc2CNC2CC2)cn1 [II.8, N-{2-[(6-methoxypyridin-3-yl)(dimethyl)silyl]benzyl}cyclopropanamine]
chromatographic logP [1, 3]: 1.86

Structure (SMILES): C[Si](C)(c1cccs1)c1ccccc1CNC1CC1 [II.6, N-{2-[dimethyl(2-thienyl)silyl]benzyl}cyclopropanamine]
chromatographic logP [1, 3]: 1.76

Structure (SMILES): Cc1nn(C)c(F)c1C(=O)N(Cc1ccccc1[Si](C)(C)c1ccccc1)C1CC1 [I.1, N-cyclopropyl-N-{2-[dimethyl(phenyl)silyl]benzyl}-5-fluoro-1,3-dimethyl-1H-pyrazole-4-carboxamide]
Efficacy (Uromyces appendiculatus): 93% | chromatographic logP [1, 2]: 4.24 | Efficacy (Puccinia recondita): 92% | Efficacy (Septoria tritici): 96% | Efficacy (Sphaerotheca fuliginea): 100%

Structure (SMILES): Cn1nc(C(F)F)c(C(=O)N(Cc2ccccc2[Si](C)(C)c2ccccc2)C2CC2)c1Cl [I.5]
logP [1, 2]: 4.88 | Efficacy (Puccinia recondita): 83% | Efficacy (Sphaerotheca fuliginea): 79%

Structure (SMILES): C[Si](C)(c1ccccc1CNC1CC1)c1cccc2ccccc12 [II.5, N-{2-[dimethyl(1-naphthyl)silyl]benzyl}cyclopropanamine]
chromatographic logP [1, 3]: 2.11

Structure (SMILES): Cc1nc(C(F)F)c(C(=O)N(Cc2ccccc2[Si](C)(C)c2ccc(-c3ccccc3)cc2)C2CC2)s1 [I.17]
logP [1, 2]: 5.93

Structure (SMILES): CCc1nn(C)c(F)c1C(=O)N(Cc1ccccc1[Si](C)(C)c1ccccc1)C1CC1 [I.2]
logP [1, 2]: 4.81 | Efficacy (Puccinia recondita): 83% | Efficacy (Sphaerotheca fuliginea): 100%

Structure (SMILES): C[Si](C)(c1ccc(Oc2ccccc2)cc1)c1ccccc1CNC1CC1 [II.4, N-{2-[dimethyl(4-phenoxyphenyl)silyl]benzyl}cyclopropanamine]
chromatographic logP [1, 3]: 2.42

Structure (SMILES): Cn1nc(C(F)F)c(C(=O)N(Cc2ccccc2[Si](C)(C)c2ccc(-c3ccccc3)cc2)C2CC2)c1F [I.13]
logP [1, 2]: 5.71

Structure (SMILES): Cn1cc(C(=O)N(Cc2ccccc2[Si](C)(C)c2ccc(Cl)cc2)C2CC2)c(C(F)F)n1 [I.7]
Efficacy (Uromyces appendiculatus): 86% | logP [1, 2]: 4.81 | Efficacy (Puccinia recondita): 78% | Efficacy (Sphaerotheca fuliginea): 70%

Structure (SMILES): Cc1cc(C(=O)N(Cc2ccccc2[Si](C)(C)c2ccc(Cl)cc2)C2CC2)c(C)o1 [I.9]
logP [1, 2]: 5.78

Further lines, with some results ahead:

logP [1, 2]: 4.61
Structure (SMILES): Cn1nc(C(F)F)c(C(=O)N(Cc2ccccc2[Si](C)(C)c2cccs2)C2CC2)c1F [I.33]
Efficacy (Uromyces appendiculatus): 100% | Efficacy (Septoria tritici): 100% | Efficacy (Sphaerotheca fuliginea): 100%

logP [1, 2]: 4.25
Structure (SMILES): COc1ccc([Si](C)(C)c2ccccc2CN(C(=O)c2c(C(F)F)nn(C)c2Cl)C2CC2)cn1 [I.39]

logP [1, 2]: 5.81
Structure (SMILES): Cc1nc(C(F)F)c(C(=O)N(Cc2ccccc2[Si](C)(C)c2ccc(Oc3ccccc3)cc2)C2CC2)s1 [I.24]

logP [1, 2]: 5.28
Structure (SMILES): C[Si](C)(c1cccs1)c1ccccc1CN(C(=O)c1ccsc1I)C1CC1 [I.34]

logP [1, 2]: 5.62
Structure (SMILES): Cn1cc(C(=O)N(Cc2ccccc2[Si](C)(C)c2ccc(Oc3ccccc3)cc2)C2CC2)c(C(F)F)c1 [I.23]

logP [1, 2]: 5.19
Structure (SMILES): Cc1cc(C(=O)N(Cc2ccccc2[Si](C)(C)c2cccs2)C2CC2)c(C)o1 [I.35]

logP [1, 2]: 4.83
Structure (SMILES): Cn1cc(C(=O)N(Cc2ccccc2[Si](C)(C)c2cccc3ccccc23)C2CC2)c(C(F)F)n1 [I.26]

logP [1, 2]: 6.36
Structure (SMILES): C[Si](C)(c1ccc(Oc2ccccc2)cc1)c1ccccc1CN(C(=O)c1ccsc1I)C1CC1 [I.22]

logP [1, 2]: 4.72
Structure (SMILES): Cn1nc(C(F)F)c(C(=O)N(Cc2ccccc2[Si](C)(C)c2cccs2)C2CC2)c1Cl [I.32]
Efficacy (Uromyces appendiculatus): 71%

logP [1, 2]: 5.31
Structure (SMILES): Cc1nc(C(F)F)c(C(=O)N(Cc2ccccc2[Si](C)(C)c2cccc3ccccc23)C2CC2)s1 [I.30]

logP [1, 2]: 5.31
Structure (SMILES): Cc1nc(C(F)F)c(C(=O)N(Cc2ccccc2[Si](C)(C)c2ccc(Cl)cc2)C2CC2)s1 [I.12]

logP [1, 2]: 5.81
Structure (SMILES): C[Si](C)(c1ccc(Cl)cc1)c1ccccc1CN(C(=O)c1ccsc1I)C1CC1 [I.11]

logP [1, 2]: 4.24
Structure (SMILES): Cn1cc(C(=O)N(Cc2ccccc2[Si](C)(C)c2cccs2)C2CC2)c(C(F)F)n1 [I.31]
Efficacy (Uromyces appendiculatus): 96% | Efficacy (Puccinia recondita): 75% | Efficacy (Septoria tritici): 96% | Efficacy (Sphaerotheca fuliginea): 100%

logP [1, 2]: 4.74
Structure (SMILES): Cc1nc(C(F)F)c(C(=O)N(Cc2ccccc2[Si](C)(C)c2cccs2)C2CC2)s1 [I.36]

logP [1, 2]: 5.19
Structure (SMILES): Cn1cc(C(=O)N(Cc2ccccc2[Si](C)(C)c2cccc3ccccc23)C2CC2)c(C(F)F)c1 [I.28]

logP [1, 2]: 5.87
Structure (SMILES): Cc1cc(C(=O)N(Cc2ccccc2[Si](C)(C)c2cccc3ccccc23)C2CC2)c(C)o1 [I.27]

logP [1, 2]: 4.59
Structure (SMILES): Cn1cc(C(=O)N(Cc2ccccc2[Si](C)(C)c2cccs2)C2CC2)c(C(F)F)c1 [I.37]

logP [1, 2]: 4.13
Structure (SMILES): COc1ccc([Si](C)(C)c2ccccc2CN(C(=O)c2c(C(F)F)nn(C)c2F)C2CC2)cn1 [I.38]

logP [1, 2]: 6.33
Structure (SMILES): Cc1cc(C(=O)N(Cc2ccccc2[Si](C)(C)c2ccc(Oc3ccccc3)cc2)C2CC2)c(C)o1 [I.21]
